23 compounds from patent US12630528B2, “Amino aryl derivative useful as diacylglycerol acyltransferase 2 inhibitor and use thereof” (LG CHEM, LTD., priority 2019, dated 2026) can be followed below.

The structures appear in SMILES notation. pIC50: −log10 of the molar value.

What is called pIC50 is the IC50 on a negative log10 scale, so that one unit is a factor of ten.

This assay has as its target T1, human DGAT2 (Homo sapiens, UniProt Q96PD7).
T1 construct: FLAG (DYKDDDDK); made in house; host or cells: Sf-21 insect cells (BacPAK baculovirus system); membrane fraction used
T1 sequence (Q96PD7 1-388): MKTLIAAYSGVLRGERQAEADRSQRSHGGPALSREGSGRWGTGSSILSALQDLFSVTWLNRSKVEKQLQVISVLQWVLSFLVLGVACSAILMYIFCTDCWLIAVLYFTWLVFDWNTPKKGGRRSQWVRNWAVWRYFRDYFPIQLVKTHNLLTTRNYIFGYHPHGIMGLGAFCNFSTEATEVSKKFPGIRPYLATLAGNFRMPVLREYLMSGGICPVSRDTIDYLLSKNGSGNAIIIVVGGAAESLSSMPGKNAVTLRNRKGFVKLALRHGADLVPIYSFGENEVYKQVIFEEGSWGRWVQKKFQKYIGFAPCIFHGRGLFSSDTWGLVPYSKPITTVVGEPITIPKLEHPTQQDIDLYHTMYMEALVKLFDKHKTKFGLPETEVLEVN
As to the kind of experiment: DGAT2 enzyme activity inhibition, Phospholipid FlashPlate SPA. The conditions noted are these: recombinant human DGAT2 membrane protein from Sf-21 cells; inhibition of [14C]-TG production; 37° C. The assay is classed as biochemical. On the procedure:
In order to prepare the pBacPAK9-DGAT2, which is DGAT2 expression vector, the human DGAT2 gene amplified by polymerase chain reaction (PCR) was cloned into the EcoR1 and Xho1 sites of the pBacPAK9 (clonctech) vector. The nucleotide sequence of the primers used in PCR was the forward primer 5′ […] (SEQ. ID. NO: 2). The composition of the reaction solution was to contain 50 ng of cDNA clone (OriGene), 200 μM of dATP, dCTP, dTTP, dGTP, 200 nM of each primer, 1 unit of Tag DNA Polymerase (Toyobo), 1×PCR buffer, and the final volume was adjusted to 20 μl. The reaction conditions were denatured at 95° C. for 5 minutes, followed by 30 times of 94° C. for 20 seconds, 60° C. for 20 seconds, and 72° C. for 90 seconds, followed by further reaction at 72° C. for 7 minutes.
Recombinant human DGAT2 protein was expressed in Sf-21 cells, which are insect cells, by using the BacPack baculovirus expression system (Clontech). The brief manufacturing process is as follows. First, the pBacPAK9-DGAT2 expression vector was transfected with BacPAK6 virus DNA (Bsu36I digest) into sf21 cells using Bacfectin to prepare a recombinant DGAT2 expressing baculovirus. The thus prepared baculovirus was infected with Sf-21 cells at 10 MOI (multiplicity of infection), and after 72 hours, infected insect cells were collected and membrane proteins were isolated. For membrane protein separation, the cell pellet was dissolved in a sucrose solution containing 250 mM sucrose, 10 mM Tris (pH 7.4), and 1 mM ethylenediamine-tetraacetic acid (EDTA), and then homogenized by using a dounce homogenizer, and the supernatant was taken by centrifuging at 600×g for 15 minutes, and centrifuged at 100,000×g for 1 hour to discard the supernatant, and the remaining pellet was resuspended in 20 mM HEPES buffer (pH 7.4). The prepared DGAT2 overexpressing membrane protein was dispensed in 100 μl and stored at −80° C. until use. Protein concentration was quantified by using the BCA Protein Assay Kit (Thermo Scientific).
In vitro DGAT2 analysis was performed using a Phospholipid Flash Plate (PerkinElmer) based on the principle of SPA (Scintilation Proximity Assay). First, DGAT2 inhibition compounds serially diluted 5 times from 3 nM to 10 μM (final concentration, 1% DMSO) were mixed in a buffer solution containing 2 μg DGAT2-membrane protein and 20 mM HEPES, 20 mM MgCl2, 1 mg/mL BSA, 50 μM 1,2 sn-oleoyl glycerol (Sigma), put in a 96-well flash plate (FlashPlate) and reacted at 37° C. for 20 minutes, and then 1 μM [14C] ole oil CoA (PerkinElmer, NEC651050UC) was added to be a final volume of 100 μL and further reacted at 37° C. for 15 minutes. After the enzymatic reaction was completed, 100 μL of isopropanol was added, the plate was sealed with a film, and the plate was shaken slowly in a plate shaker. The next day, the amplified scintillation signal (cpm) in Topcounter (Packard) was measured to measure the degree of production of [14C]-labeled triacyl glycerol (TG) as a reaction product. The measured value when the compound was not treated was used as a positive control, and the measured value of the compound treated group was calculated as a relative % to measure the inhibition effect of the compound on TG production.
Regarding `CCOc1ccccc1O[C@@H]1CCCN(c2cncc(Nc3nccc(-c4ccc(OC(C)(C)C(=O)O)cc4)n3)n2)C1` [Example 160, (R)-2-(4-(2-((6-(3-(2-ethoxyphenoxy)piperidin-1-yl)pyrazin-2-yl)amino)pyrimidin-4-yl)phenoxy)-2-methylpropanoic Acid], the pIC50 is 6.89. Regarding `CCOc1ccccc1O[C@@H]1CCCN(c2cncc(Nc3ccn(CC(C)(C)C(=O)O)n3)n2)C1` [Example 21, (R)-3-(3-((6-(3-(2-ethoxyphenoxy)piperidin-1-yl)pyrazin-2-yl)amino)-1H-pyrazol-1-yl)-2,2-dimethylpropanoic Acid], the pIC50 was less than 5.00.

For the compound `CCOc1ccccc1O[C@@H]1CCCN(c2cncc(Nc3cccc(Oc4ccc(CC(=O)O)cc4)n3)n2)C1` [Example 97, (R)-2-(4-((6-((6-(3-(2-ethoxyphenoxy)piperidin-1-yl)pyrazin-2-yl)amino)pyridin-2-yl)oxy)phenyl)acetic Acid], the pIC50 is 6.05. As to `CCOc1ccccc1O[C@@H]1CCCN(c2cncc(Nc3nc4cc(C(C)(C)C(=O)O)ccc4o3)n2)C1` [Example 13, (R)-2-(2-((6-(3-(2-ethoxyphenoxy)piperidin-1-yl)pyrazin-2-yl)amino)benzo[d]oxazol-5-yl)-2-methylpropanoic Acid], the negative-log IC50 (pIC50) was 6.02. `CCOc1ccccc1O[C@@H]1CCCN(c2cncc(Nc3ccc(-c4cccc(CC(C)(C)C(=O)O)c4)nc3)n2)C1` [Example 48, (R)-3-(3-(5-((6-(3-(2-ethoxyphenoxy)piperidin-1-yl)pyrazin-2-yl)amino)pyridin-2-yl)phenyl)-2,2-dimethylpropanoic Acid]: the pIC50 was 5.74. For the compound `CCOc1ccccc1O[C@@H]1CCCN(c2cncc(Nc3cccc(-c4ccc(C(C)(C)C(=O)O)cc4)n3)n2)C1` [Example 61, (R)-2-(4-(6-((6-(3-(2-ethoxyphenoxy)piperidin-1-yl)pyrazin-2-yl)amino)pyridin-2-yl)phenyl)-2-methylpropanoic Acid], the pIC50 was 7.04. The value for `CCOc1ccccc1O[C@@H]1CCCN(c2cncc(Nc3nc4cc(CC(C)(C)C(=O)O)ccc4o3)n2)C1` [Example 14, (R)-3-(2-((6-(3-(2-ethoxyphenoxy)piperidin-1-yl)pyrazin-2-yl)amino)benzo[d]oxazol-5-yl)-2,2-dimethylpropanoic Acid] was 5.51; that for `CCOc1ccccc1O[C@@H]1CCCN(c2cncc(Nc3cc(-c4cccc(CCC(=O)O)c4)ccn3)n2)C1` [Example 46, (R)-3-(3-(2-((6-(3-(2-ethoxyphenoxy)piperidin-1-yl)pyrazin-2-yl)amino)pyridin-4-yl)phenyl)propanoic Acid] was 5.74; that for `CCOc1cccnc1O[C@@H]1CCCN(c2cncc(Nc3cccc(-c4ccc(C(C)(C)C(=O)O)cc4)n3)n2)C1` [Example 62, (R)-2-(4-(6-((6-(3-((3-ethoxypyridin-2-yl)oxy)piperidin-1-yl)pyrazin-2-yl)amino)pyridin-2-yl)phenyl)-2-methylpropanoic Acid] was 6.77. The value for `CCOc1cccnc1O[C@@H]1CCCN(c2cncc(Nc3nccc(-c4cccc(OC(C)(C)C(=O)O)c4)n3)n2)C1` [Example 159, (R)-2-(3-(2-((6-(3-((3-ethoxypyridin-2-yl)oxy)piperidin-1-yl)pyrazin-2-yl)amino)pyrimidin-4-yl)phenoxy)-2-methylpropanoic Acid] was 6.25; that for `CCOc1ccccc1O[C@@H]1CCCN(c2cncc(Nc3cccc(-c4ccc(OC(C)(C)C(=O)O)cc4)n3)n2)C1` [Example 82, (R)-2-(4-(6-((6-(3-(2-ethoxyphenoxy)piperidin-1-yl)pyrazin-2-yl)amino)pyridin-2-yl)phenoxy)-2-methylpropanoic Acid] was 6.92.

Regarding `CCOc1ccccc1O[C@@H]1CCCN(c2nccc(Nc3nccc(-c4cccc(CC(C)(C)C(=O)O)c4)n3)n2)C1` [Example 149, (R)-3-(3-(2-((2-(3-(2-ethoxyphenoxy)piperidin-1-yl)pyrimidin-4-yl)amino)pyrimidin-4-yl)phenyl)-2,2-dimethylpropanoic Acid], the negative logarithm of the IC50 (pIC50) was 5.30.

For the compound `CCOc1ccccc1O[C@@H]1CCCN(c2cncc(Nc3ncc(C(=O)O)cn3)n2)C1` [Example 114, (R)-2-((6-(3-(2-ethoxyphenoxy)piperidin-1-yl)pyrazin-2-yl)amino)pyrimidine-5-carboxylic Acid], the pIC50 is less than 5.00. The value for `CCOc1ccccc1O[C@@H]1CCCN(c2cncc(Nc3cccc(-c4cnn(CC(C)(C)C(=O)O)c4)n3)n2)C1` [Example 86, (R)-3-(4-(6-((6-(3-(2-ethoxyphenoxy)piperidin-1-yl)pyrazin-2-yl)amino)pyridin-2-yl)-1H-pyrazol-1-yl)-2,2-dimethylpropanoic Acid] was 6.52; that for `CCOc1cccnc1O[C@@H]1CCCN(c2cncc(Nc3nccc(-c4ccc(CC(C)(C)C(=O)O)cc4)n3)n2)C1` [Example 154, (R)-3-(4-(2-((6-(3-((3-ethoxypyridin-2-yl)oxy)piperidin-1-yl)pyrazin-2-yl)amino)pyrimidin-4-yl)phenyl)-2,2-dimethylpropanoic Acid] was 6.74; that for `CCOc1cccnc1O[C@@H]1CCCN(c2cncc(Nc3cccc(-c4ccc(OC(C)(C)C(=O)O)cc4)n3)n2)C1` [Example 83, (R)-2-(4-(6-((6-(3-((3-ethoxypyridin-2-yl)oxy)piperidin-1-yl)pyrazin-2-yl)amino)pyridin-2-yl)phenoxy)-2-methylpropanoic Acid] was 6.30.

As for `CCOc1ccccc1O[C@@H]1CCCN(c2ccnc(Nc3cccc(-c4ccc(NCC(=O)O)cc4)n3)n2)C1` [Example 76], the pIC50 was 6.52. The value for `CCOc1cccnc1O[C@@H]1CCCN(c2cncc(Nc3nccc(Oc4ccc(CC(=O)O)cc4)n3)n2)C1` [Example 163] was 6.07; that for `CCOc1cccnc1O[C@@H]1CCCN(c2cncc(Nc3ccc(F)c(-c4cccc(OC(C)(C)C(=O)O)c4)n3)n2)C1` [Example 105, (R)-2-(3-(6-((6-(3-((3-ethoxypyridin-2-yl)oxy)piperidin-1-yl)pyrazin-2-yl)amino)-3-fluoropyridin-2-yl)phenoxy)-2-methylpropanoic Acid] was 6.30; that for `CCOc1cccnc1O[C@@H]1CCCN(c2cncc(Nc3ccnc(-c4cccc(OC(C)(C)C(=O)O)c4)n3)n2)C1` [Example 175, (R)-2-(3-(4-((6-(3-((3-ethoxypyridin-2-yl)oxy)piperidin-1-yl)pyrazin-2-yl)amino)pyrimidin-2-yl)phenoxy)-2-methylpropanoic Acid] was 5.96. As to `CCOc1ccccc1O[C@@H]1CCCN(c2cncc(Nc3nc4cc(Cl)ccc4o3)n2)C1` [Example 11, (R)-5-chloro-N-(6-(3-(2-ethoxyphenoxy)piperidin-1-yl)pyrazin-2-yl)benzo[d]oxazol-2-amine], the pIC50 was 7.23. Regarding `CCOc1cccnc1O[C@@H]1CCCN(c2cncc(Nc3cccc(Oc4cccc(C(=O)O)c4)n3)n2)C1` [Example 88, (R)-3-((6-((6-(3-((3-ethoxypyridin-2-yl)oxy)piperidin-1-yl)pyrazin-2-yl)amino)pyridin-2-yl)oxy)benzoic Acid], the negative-log IC50 (pIC50) was 5.89. On to `CCOc1ccccc1O[C@@H]1CCCN(c2cncc(Nc3ccc(C(C)(C)C(=O)O)cn3)n2)C1` [Example 49], for which the pIC50 is less than 5.00.
